Entries after “also recorded” stand apart in the source; their conditions may differ. Peptide text beside a SMILES is read from it. * marks the point of attachment. Cbz = O=C(OCc1ccccc1)*
Legend:
[1] = system: proteasomal degradation; assay: Detection of p22 cleavage product in cells treated with MG-132; format: cell-based; details: Chlamydia-infected cells treated with MG-132; data not shown
Excerpt: The cleavage of p65 was confirmed by the detection of a 22 kDa fragment with a C-terminus specific antibody against p65 (FIG. 1C). […] The 40 kDa fragment was further characterized with MALDI proteomics. Thus, 293T cells, transfected for GST-p65 protein expression, were infected with LGV2 for 28 hr. After purification, the cleavage product was subjected to trypsin digestion followed by MALDI TOF identification. Seven proteolytic fragments were detected, which covered the N-terminal GST tag and the RHD region of p65 (supplemental data).
Western blots. Except as noted, extracts were prepared by lysis of cells with a buffer containing 143 mM NaCl, 50 mM Tris-HCl (pH 7.5), 1 mM DTT, 1% NP-40, 0.1% SDS and protease inhibitors (Roche). Soluble proteins were separated by SDS-PAGE or Tris-Glycine gels (Novex). Blots were probed with specific antibodies. Horseradish peroxidase conjugated secondary antibodies (Sigma) and ECL reagent kit (Pierce) were used for detection.

[2] = system: Chlamydia trachomatis LGV2; assay: p65 cleavage in Chlamydia-infected cells treated with antibiotics (immunoblotting); format: cell-based; details: rifampin 0.1 μg/ml, chloramphenicol 60 μg/ml, penicillin G 100 μg/ml, FIG. 1E
Procedure: A. Hela 229 cells were infected with Chlamydia trachomatis LGV2 at 1 IFU/cell for varying times, or with invasive (wt) or invasion-defective (mut) Salmonella typhimurium for 2 hr. IκBα expression and degradation were detected by immunoblotting analyses. TNFα (10 ng/ml) was used as a positive control. B. Hela 229 cells were infected with LGV2 at 1 IFU/cell for 2, 16 and 24 hr. The cytosolic (C) and nuclear (N) fractions were separated and redistribution of p65/RelA was detected by immunoblotting analysis. The expression of lamin A and β-tubulin were used as loading controls for nuclear and cytosolic fractions, respectively. C. Whole cell lysates from Chlamydia-infected cells were separated by SDS-PAGE and cleavage of p65 was detected with an N- or C-terminus specific antibody against p65. D. Selective cleavage of p65 by Chlamydia infection. The expression of NF-κB pathway signaling molecules in Chlamydia-infected and non-infected control cells was determined by immunoblotting analysis. E. Inhibition of Chlamydia growth blocks p65 cleavage. The infected cells were treated with rifampin (Rif, 0.1 μg/ml) or chloramphenicol (Chl, 60 μg/ml), reagents that inhibit Chlamydia growth by blocking transcription or translation, respectively. […] The expression of β-tubulin or Erk2/MAPK was used as loading controls. All experiments were performed at least 3 times.
Infection assays. […]

[3] = system: p65 cleavage activity of Chlamydia; assay: In vitro p65 cleavage assay with solubilized chlamydial EB proteins; format: biochemical; details: 37° C. for 60 min; inhibitor added 30 min prior to p65; EDTA 5 mM, lactacystin 10 μM; FIG. 2C
Procedure: Purified Chlamydia EB was solubilized with a buffer containing 1% NP-40. […] The graph represents the rates of p65 disappearance and p40 appearance in the same reaction. C. […] In parallel experiments, protease inhibitors were included in the in vitro p65 cleavage assay. […] Lane 4: Roche protease inhibitor cocktail at 10×; Lane 5: heat-inactivated EB; Lane 6: EDTA at 5 mM; Lane 7: Lactacystin at 10 μM; Lane 8: MG132 at 20 μM; Lane 9: TPCK at 20 μM; and Lane 10: TLCK at 20 μM. The presence of the chlamydial major outer membrane protein (MOMP) was used as a measure of EB protein input (lower panel).
In vitro p65 cleavage assays. Gradient purified chlamydial EB were solubilized with Tris-buffered saline, supplemented with 1% NP-40. The soluble proteins were collected and used for p65 cleavage assays. […] For inhibition assays, an inhibitor was added 30 min prior to the addition of p65 protein. All assays were performed at 37° C. for 60 min or as otherwise indicated.

[4] = system: IκBα; assay: IκBα degradation in Hela 229 cells (immunoblotting); format: cell-based; details: TNFα 10 ng/ml, positive control, FIG. 1A
Excerpt: The host inflammatory response to bacterial infection or proinflammatory cytokine and LPS stimulation is mediated by NF-κB activity, which is regulated by the selective degradation of IκB proteins. Karin and Ben-Neriah, Annu. Rev. Immunol 18: 621, 2000; Richmond, Nat. Rev. Immunol 2: 664, 2002. To investigate whether Chlamydia targeted the NF-κB pathway to interfere with host inflammatory response, we first examined the integrity of IκBα, a regulatory molecule of NF-κB activation. To this end, monolayers of Hela 229 cells were infected with C. trachomatis LGV2 at 1 inclusion forming unit per cell (1 IFU/cell) for varying time points. Lad et al., J Immunol 174: 7186, 2005. […]
A. Hela 229 cells were infected with Chlamydia trachomatis LGV2 at 1 IFU/cell for varying times, or with invasive (wt) or invasion-defective (mut) Salmonella typhimurium for 2 hr. IκBα expression and degradation were detected by immunoblotting analyses. […] The cytosolic (C) and nuclear (N) fractions were separated and redistribution of p65/RelA was detected by immunoblotting analysis. […] Whole cell lysates from Chlamydia-infected cells were separated by SDS-PAGE and cleavage of p65 was detected with an N- or C-terminus specific antibody against p65. […] The expression of NF-κB pathway signaling molecules in Chlamydia-infected and non-infected control cells was determined by immunoblotting analysis. […]

[5] = system: NF-κB; assay: pIL8-luciferase reporter gene assay in 293T cells; format: cell-based, human; details: TNFα 10 ng/ml, FIG. 3C, 3D
Procedure: (§1) We therefore investigated whether expression of CT441 interfered with NF-κB signal transduction. To this end, 293T cells were transfected with pIL8-luciferase (Kim et al., Cancer Res 65: 8784, 2005) and a plasmid for CT441 expression. The cells were then treated with TNFα to induce luciferase expression. In parallel experiments, we also included a mouse cell line for control purposes since murine p65 is resistant to cleavage by Chlamydia infection. […] The p40 cleavage product (amino acid residues 1-351) was then investigated for its inhibitory effect on TNFα-induced NF-κB activation.
(§2) A. Putative chlamydial proteases were expressed as N-terminal HA-tagged proteins in 293T cells and screened for their ability to cleave p65. […] 441, 494, 823 and 858 represent chlamydial CT441, CT494, CT823, and CT858, respectively. […] Monolayers of 293T or NIH3T3 cells were co-transfected with pIL8-Luc (Kim et al., Cancer Res 65: 8784, 2005) and a plasmid for the expression of chlamydial protease CT441 or the p40 cleavage product of p65. pSV40-RL was included as an internal control for transfection reactions. The cells were treated with TNFα (10 ng/ml) 18 hr post transfection to induce luciferase expression. Luciferase activities were determined with a Dual-Glo reagent kit (Promega) 18 hr after TNFα treatment. The ratio of firefly and Renilla luciferase activities (FL/RL) was plotted. […]

[6] = system: p65; assay: Expression of putative chlamydial proteases in 293T cells, cleavage of endogenous p65 (Western blot); format: cell-based, human; details: N-terminal HA-tagged proteins expressed in 293T cells; FIG. 3A, 3B
Excerpt: The chlamydial genome encodes 16 proteases (Stephens et al., Science 282: 754, 1998), including four putative proteases that contain a leader sequence for periplasmic secretion and potential translocation by the chlamydial type III secretory system. The mature peptides of those putative proteases were therefore screened for their ability to cleave p65 after expression in 293T cells. […] CT441 encodes a tail-specific protease (Tsp) that is well conserved among Chlamydia species.
as §2, with “plotted. All transfections were performed in duplicate and the data are presented as means +/− error.” for “plotted.”

[7] = system: NF-κB; assay: pIL8-luciferase reporter gene assay in NIH3T3 cells; format: cell-based, mouse; details: TNFα 10 ng/ml, FIG. 3C
Procedure: as §1, §2

CC(C)C[C@@H](C=O)NC(=O)[C@H](CC(C)C)NC(=O)[C@H](CC(C)C)NC(=O)OCc1ccccc1 [MG-132] (Cbz-Leu-Leu-Leu-aldehyde)
detection of p22 [1]: Enhanced detection of p22

O=C(N[C@H](CO)[C@H](O)c1ccc([N+](=O)[O-])cc1)C(Cl)Cl [chloramphenicol]
Chlamydia cleavage of p65 [2]: blocked

CC(=O)N[C@@H](CSC(=O)[C@]1([C@@H](O)C(C)C)NC(=O)[C@H](C)[C@@H]1O)C(=O)O [lactacystin]
p65 cleavage activity of Chlamydia (solubilized EB proteins) [3]: inhibited p65 cleavage activity

CO[C@H]1/C=C/O[C@@]2(C)Oc3c(C)c(O)c4c(O)c(c(/C=N/N5CCN(C)CC5)c(O)c4c3C2=O)NC(=O)/C(C)=C\C=C\[C@H](C)[C@H](O)[C@@H](C)[C@@H](O)[C@@H](C)[C@H](OC(C)=O)[C@@H]1C [rifampin]
Chlamydia cleavage of p65 [2]: blocked

TNFα
IκBα degradation [4]: caused IκBα degradation

B1: p40: N-terminal p40 cleavage product of p65/RelA, amino acid residues 1-351 of SEQ ID NO:1 (protein, listed as Homo Sapiens)
chain: MDELFPLIFPAEPAQASGPYVEIIEQPKQRGMRFRYKCEGRSAGSIPGERSTDTTKTHPTIKINGYTGPGTVRISLVTKDPPHRPHPHELVGKDCRDGFYEAELCPDRCIHSFQNLGIQCVKKRDLEQAISQRIQTNNNPFQVPIEEQRGDYDLNAVRLCFQVTVRDPSGRPLRLPPVLPHPIFDNRAPNTAELKICRVNRNSGSCLGGDEIFLLCDKVQKEDIEVYFTGPGWEARGSFSQADVHRQVAIVFRTPPYADPSLQAPVRVSMQLRRPSDRELSEPMEFQYLPDTDDRHRIEEKRKRTYETFKSIMKKSPFSGPTDPRPPPRRIAVPSRSSASVPKPAPQPYPF
modifications: Myc tag
TNFα-induced luciferase activity (NF-κB activation) [5]: inhibited luciferase expression; also recorded: inhibited NF-κB activity

B2: CT441: Chlamydia trachomatis tail-specific protease, SEQ ID NO:2 (protein, listed as Chlamydia trachomatis)
chain: MMRFARFCLLVLTLFPQLAFSAEPLRRQDVRKTVDKLVEHHIDTQQISPYILSRSLEDYVRSFDSHKAYLTQDEVFSHAFSEEATRPLFKQYQEDNFSSFKELDTCIQQSISRAREWRSSWLTDSIRVIQDAMSHTIEKKPSAWASSIEEVKQRQYDLLLSYASIYLEDAAKNRYQGKEHALVKLCIRQIENHENPYIGINDHGYRMSPEEEANSFHVRIIKSIAHSLDAHTAYFSQEEALSMRAQLEKGMCGIGVVLKEDIDGVVVKEVLAGGPADKTGSLRVGDIIYRVNGKNIENTPFPGVLDSLRGSPGSSVTLDIHRQNNDHVIQLRREKILLDSRRVDVSYEPYGNGIIGKITLHSFYEGENQVSSEQDLRKAIRELQEKNLLGLVLDIRENTGGFLSQAIKVSGLFLTNGVVVVSRYADGSVKRYRTISPQKFYDGPLAVLVSKSSASAAEIVAQTLQDYGVALIVGDQQTYGKGTIQHQTITGSNSQEDFFKVTVGRYYSPSGKSTQLEGVKSDIVIPSRYAEDKLGERFLEYALPADQYENVINDNLGDLDINIRPWFQKYYSPHLQKPELVWREMLPQLAHNSQERLEKNKNFEIFVQHLKKTNKQDRSFGSNDLQMEESVNIVKDMILLKSIS
p65 cleavage after expression in 293T cells [6]: caused p65 cleavage; also recorded: resulted in selective cleavage of p65
TNFα-induced luciferase activity (NF-κB activation) [5]: inhibited TNFα-induced luciferase activity; also recorded: inhibited NF-κB activity
TNFα-induced luciferase expression [7]: showed no effect

B3: CT858: chlamydial protease detected during an infection but not in purified EB (protein)
chain: MKMNRIWLLLLTFSSAIHSPVQGESLVCKNALQDLSFLEHLLQVKYAPKTWKEQYLGWDLVQSSVSAQQKLRTQENPSTSFCQQVLADFIGGLNDFHAGVTFFAIESAYLPYTVQKSSDGRFYFVDIMTFSSEIRVGDELLEVDGAPVQDVLATLYGSNHKGTAAEESAALRTLFSRMASLGHKVPSGRTTLKIRRPFGTTREVRVKWRYVPEGVGDLATIAPSIRAPQLQKSMRSFFPKKDDAFHRSSSLFYSPMVPHFWAELRNHYATSGLKSGYNIGSTDGFLPVIGPVIWESEGLFRAYISSVTDGDGKSHKVGFLRIPTYSWQDMEDFDPSGPPPWEEFAKIIQVFSSNTEALIIDQTNNPGGSVLYLYALLSMLTDRPLELPKHRMILTQDEVVDALDWLTLLENVDTNVESRLALGDNMEGYTVDLQVAEYLKSFGRQVLNCWSKGDIELSTPIPLFGFEKIHPHPRVQYSKPICVLINEQDFSCADFFPVVLKDNDRALIVGTRTAGAGGFVFNVQFPNRTGIKTCSLTGSLAVREHGAFIENIGVEPHIDLPFTANDIRYKGYSEYLDKVKKLVCQLINNDGTIILAEDGSF
modifications: left off: small tags and cut ends
notes: chlamydial protease detected during an infection but not in purified EB
p65 cleavage after expression in 293T cells [6]: did not exhibit p65 cleavage activity

— patent publication US20080124338A1, “METHODS FOR TREATMENT OF INFLAMMATORY DISEASE AND CHLAMYDIA INFECTIOUS DISEASE” (The Scripps Research Institute, priority 2006, published 2008)
